According to PMC11987438, “A novel approach utilizing spirocyclic thiopyrimidinone compounds against herpes simplex virus with underlying antiviral mechanisms of action” (Virology Journal, 2025):
Converted amounts (≈) assume the structure as drawn. “Also recorded” adds a separate entry of the source.

Columns and labels:
[1] = test system: herpes simplex virus type 2 (HSV-2); test: Antiviral activity screening by MTT; assay type: cell-based, human herpes simplex virus type 2; conditions: for IC50: Human alphaherpesvirus 2, HSV-2 (MOI = 1) in Vero cells, 72 h, MTT; for SI: selectivity index, CC50 (Vero) / IC50 (HSV-2)
Method: In accordance with the previous section, the CC50 (50% cytotoxic concentration) of each compound was determined as the starting point for screening its antiviral activity. A volume of 100 µL of cell suspension containing 10^4 cells was added to each well of a 96-well plate. The plates with the cells were then placed in a 5% humidified CO2 incubator at 37 °C for 24 h to allow the cells to adhere and form a monolayer. The cell monolayers were subsequently washed once with 1x phosphate-buffered saline (PBS) and infected with herpes simplex virus type 2 (HSV-2) (MOI = 1) in triplicate for 1 h. After the infection period, 100 µL of each compound’s serial dilution was added to the infected cells. A triplicate of untreated infected cells was included as a positive control (VC), and the mixture was incubated for 72 h at 37 °C in a 5% CO2 incubator. Following the 72-hour incubation, the supernatant medium was removed, and the cell monolayers were washed with 1x PBS. Then, 25 µL of a 0.5 mg/mL solution of MTT (3-(4,5-dimethylthiazol-2-yl)-2,5-diphenyltetrazolium bromide) obtained from Sigma‒Aldrich, Saint Louis, MO, USA, was added to each well and incubated for 2 h at 37 °C. The MTT reagent was subsequently discarded, and 200 µL of acidified isopropanol (1 N HCl in 99.9% isopropanol) was added to dissolve the formazan crystals formed by the viable cells. Finally, the color intensity was measured, and the absorbance was recorded via an ELISA plate reader. The data obtained were used to calculate the IC50 values (50% inhibitory concentration) via nonlinear regression analysis. This was accomplished by plotting the logarithm of the inhibitor concentration against the normalized response. The analysis was performed via GraphPad Prism 5 analysis software.

[2] = test system: herpes simplex virus type 2 (HSV-2); test: Inhibition mechanism of action: virus replication; assay type: cell-based, human herpes simplex virus type 2; conditions: Vero cells infected with HSV-2 MOI = 1 for 1 h, then compound, 72 h, MTT
Method: (§1) To gain a better understanding of how each compound’s antiviral activity inhibits specific steps in the viral cycle, we investigated three mechanisms: virus adsorption, virus replication, and viral fusion (virucidal). For the adsorption mechanism, we seeded 100 µl of cell suspension into 96-well cell culture plates under the previously mentioned conditions. After 24 h, the medium was discarded, and the adherent cells were washed with 1x PBS. Then, we added 100 µl of each promising compound at a pretested safe cytotoxic concentration (CC50) to the cells in triplicate. The plates were then incubated at 4 °C for 1 h to allow the compounds to adsorb onto the cell receptors. After incubation, the compound was removed, and the cells were washed again with 1x PBS. Next, we added 100 µl of the virus mixture (MOI = 1) to each well and incubated it for 1 h at 37 °C in a CO2 incubator. The virus was removed, and the cells were washed once more with 1x PBS. Finally, we added 100 µl of maintenance media containing 3% bovine serum albumin (BSA) and incubated the plates for 72 h at 37 °C in a 5% CO2 incubator. For the replication mechanism, we added 100 µl of diluted virus (MOI = 1) to a preseeded 96-well cell culture plate and incubated it for 1 h at 37 °C in a CO2 incubator. After incubation, the virus was removed, and 100 µl of each compound was added in triplicate. The plates were then incubated for 1 h at 37 °C in a CO2 incubator. Next, 100 µl of maintenance medium was added to each well. For the virucidal mechanism, we mixed an equal volume of the safe concentration of the pretested compound with the virus dilution (MOI = 1) and incubated the mixture at room temperature for 1 h. We subsequently prepared twofold serial dilutions of the mixture and inoculated them into the cells, which were then incubated for 1 h at 37 °C in a CO2 incubator. After incubation, the supernatant was removed, the cells were washed, and 100 µl of maintenance media was added. […] Finally, we measured the absorbance at λ = 570 nm via a plate reader (FLUOstar Omega Ω).

[3] = test system: herpes simplex virus type 2 (HSV-2); test: Inhibition mechanism of action: virus adsorption; assay type: cell-based, human herpes simplex virus type 2; conditions: Vero cells pretreated with compound at safe concentration 1 h at 4 °C, then HSV-2 MOI = 1, 72 h, MTT
Method: as §1, with “incubator.” for “incubator. After incubation, the virus was removed, and 100 µl of each compound was added in triplicate. The plates were then incubated for 1 h at 37 °C in a CO2 incubator. Next, 100 µl of maintenance medium was added to each well. For the virucidal mechanism, we mixed an equal volume of the safe concentration of the pretested compound with the virus dilution (MOI = 1) and incubated the mixture at room temperature for 1 h. We subsequently prepared twofold serial dilutions of the mixture and inoculated them into the cells, which were then incubated for 1 h at 37 °C in a CO2 incubator. After incubation, the supernatant was removed, the cells were washed, and 100 µl of maintenance media was added.”

[4] = test system: Caspase-3 protein expression; test: Western blot of Caspase-3 protein expression in HSV-2-infected Vero cells; assay type: cell-based, African green monkey; conditions: HSV-2-infected Vero cells (MOI = 1) treated at IC50; 1, 3, 6, 12 and 24 h postinfection
Method: A 3 ml cell suspension was cultured in six-well cell culture plates supplemented with complete DMEM and then incubated at 37 °C in a 5% CO2 incubator for 24 h. After incubation, the supernatant was discarded, and the cell monolayer was washed with 3 ml of 1x PBS. The cell monolayer was then treated in duplicate according to the IC50. Duplicates for cell and virus control were included. The cell pellets were collected at 1, 3, 6, 12, and 24 h postinfection. The cell pellets were lysed with ice-cold RIPA lysis buffer supplemented with fresh protease inhibitor cocktail, incubated for 30 min on ice, and centrifuged at 15,000 RPM at 4 °C for 20 min, after which the supernatant was transferred to a fresh tube. The total water-soluble protein concentration was quantified via a bicinchoninic acid protein assay kit (Micro BCA™ Protein Assay Kit, REF: 23235; Thermo Scientific). Ten micrograms of protein were loaded in 2x Laemmli buffer and separated via 12% sodium dodecyl sulfate–polyacrylamide gel electrophoresis (SDS‒PAGE) along with a protein ladder (Cat. No. PM008-0500, GeneDirex, Taiwan). The proteins were transferred to a 0.2 μm PVDF membrane (REF.03010040001, Sigma Aldrich, St. Louis, MO, USA) by a Mini-PROTEAN® Tetra Cell and Mini Trans-Blot (Bio-Rad) in transfer buffer (Bio-Rad Tris/Glycine transfer buffer Cat. #1610734) for 45 min at 100 V and 350 mA. β-actin (REF. No. MA5-11869; Invitrogen) was detected as a housekeeping protein against the Caspase-3 mAb (REF. No. 9662 S, Cell Signaling, Danvers, MA, USA) at a 1:1000 dilution via horseradish peroxidase-conjugated anti-mouse IgG (61-6520; Invitrogen) and anti-rabbit IgG (31460; Invitrogen) diluted 1:3000. Bands were detected via SuperSignal™ West Pico PLUS Chemiluminescent Substrate enhanced chemiluminescence (ECL, REF. 34577, Thermo Scientific, USA). Images were captured with a Bio-Rad ChemiDoc gel documentation imaging system and analyzed by Image Lab (Bio-Rad 6.1).

[5] = Cytotoxicity screening via crystal violet assay; assay type: cell-based; conditions: African green monkey, Vero cells
Method: A volume of 100 µL of cell suspension containing 10^4 cells was placed in each well of a 96-well plate. The plates containing the cells were then placed in a 5% humidified CO2 incubator at 37 °C for 24 h to allow the cells to form a confluent monolayer. By twofold serial dilution, each compound was diluted in 0.01 mL of medium, starting with a concentration of 1000 µg/ml. The diluted compounds were then cultured for 72 h at 37 °C in an environment with 5% CO2. Each concentration was tested 3 times. After the incubation period, the supernatant was discarded, and the cells were washed with 1x phosphate-buffered saline (PBS). The cells were then fixed with 100 µL of 10% formaldehyde and incubated at room temperature for 20 min. The cells were subsequently washed five times with running water. Next, 50 µL of a 0.1% solution of crystal violet dye (LOBA CHEMIE. LTD; C.I.No. 42555) was added to each well and incubated for 15 min. The cell monolayers were washed again and allowed to air dry. Finally, the crystal violet dye was dissolved by adding 200 µL of methanol, and the mixture was incubated for 20 min. The absorbance was measured via an ELISA plate reader (FLUOstar Omega Ω) at a wavelength of 570 nm. Cell viability was calculated as a percentage of the average optical density of the cell controls, which was set to 100%. The 50% cytotoxic concentration (CC50) was calculated via mean dose‒response curves via GraphPad Prism.

[6] = test system: herpes simplex virus type 2 (HSV-2); test: Inhibition mechanism of action: virucidal; assay type: cell-based, human herpes simplex virus type 2; conditions: compound mixed with HSV-2 (MOI = 1) 1 h at room temperature before inoculation of Vero cells, 72 h, MTT
Method: as §1

| IC50 [1] [µg/mL] | Compound | inhibition of HSV-2 replication [2] [%] | inhibition of HSV-2 adsorption [3] [%] | Caspase-3 protein expression level vs HSV-2 virus control [4] | CC50 at 72 h [5] [µg/mL] | inhibition by virucidal mechanism [6] [%] | SI [1] |
| --- | --- | --- | --- | --- | --- | --- | --- |
| 346 (≈ 956 µM) | N#CC1(/N=N/c2ccc(Cl)cc2)C(=O)NC(=S)NC12CCCCC2 (stereo not drawn) [Compound 5e] |  |  |  | 103 (≈ 284 µM) |  | 0.296 |
| 53.8 (≈ 116 µM) | CC(=O)C(SC1NC(=O)C(C#N)(/N=N/c2ccc(Cl)cc2)C2(CCCCC2)N1)C(C)=O (stereo not drawn) [Compound 6a] |  |  |  | 62.4 (≈ 135 µM) |  | 1.15 |
| 536 (≈ 1320 µM) | N#CC1(/N=N/c2ccc(S(N)(=O)=O)cc2)C(=O)NC(=S)NC12CCCCC2 (stereo not drawn) [Compound 5b] |  |  |  | 124 (≈ 306 µM) |  | 0.231 |
| 749 (≈ 1280 µM) | CC(=O)C(SC1NC(=O)C(C#N)(/N=N/c2ccc(S(=O)(=O)Nc3ccccn3)cc2)C2(CCCCC2)N1)C(C)=O (stereo not drawn) [Compound 6c] |  |  |  | 42.1 (≈ 72.1 µM) |  | 0.056 |
| 399 (≈ 814 µM) | N#CC1(/N=N/c2ccc(S(=O)(=O)Nc3nccs3)cc2)C(=O)NC(=S)NC12CCCCC2 (stereo not drawn) [Compound 5f] |  |  |  | 107 (≈ 219 µM) |  | 0.268 |
| 5410 (≈ 10700 µM) | CC(=O)C(SC1NC(=O)C(C#N)(/N=N/c2ccc(S(N)(=O)=O)cc2)C2(CCCCC2)N1)C(C)=O (stereo not drawn) [Compound 6b] |  |  |  | 940 (≈ 1860 µM) |  | 0.173 |
| 974 (≈ 2970 µM) | N#CC1(/N=N/c2ccccc2)C(=O)NC(=S)NC12CCCCC2 (stereo not drawn) [Compound 5a] |  |  |  | 43.9 (≈ 134 µM) |  | 0.045 |
| 217 (≈ 449 µM) | N#CC1(/N=N/c2ccc(S(=O)(=O)Nc3ccccn3)cc2)C(=O)NC(=S)NC12CCCCC2 (stereo not drawn) [Compound 5d] |  |  |  | 466 (≈ 963 µM) |  | 2.14 |

| Compound | IC50 [1] [µg/mL] | inhibition of HSV-2 replication [2] [%] | inhibition of HSV-2 adsorption [3] [%] | Caspase-3 protein expression level vs HSV-2 virus control [4] | CC50 at 72 h [5] [µg/mL] | inhibition by virucidal mechanism [6] [%] | SI [1] |
| --- | --- | --- | --- | --- | --- | --- | --- |
| CSC1NC(=O)C(C#N)C2(CCCCC2)N1 (stereo not drawn) [Compound 2] | 130 (≈ 544 µM) | 26 | 32 | decreased; also recorded: slight changes | 566 (≈ 2360 µM) | 8 |  |
| N#CC1(/N=N/c2ccc(S(=O)(=O)Nc3ncccn3)cc2)C(=O)NC(=S)NC12CCCCC2 (stereo not drawn) [Compound 5c] | 13.9 (≈ 28.8 µM) | 30 | 42 | decreased; also recorded: slight changes | 53.7 (≈ 111 µM) | 15 | 3.84 |
| CC(=O)C(SC1NC(=O)C(C#N)C2(CCCCC2)N1)C(=O)Nc1ccccc1 (stereo not drawn) [Compound 3, 2-((5-cyano-4-oxo-1,3-diazaspiro[5.5]undecan-2-yl)thio)-3-oxo-N-phenylbutanamide] | 45.4 (≈ 113 µM) | 34 |  | decreased; also recorded: significant decrease | 509 (≈ 1270 µM) | 8 |  |
